The values that follow come from US20150018301A1, “LRRK-2-Mediated Neuronal Toxicity” (THE JOHNS HOPKINS UNIVERSITY, priority 2009, published 2015).

The structures appear in SMILES notation.

The target of data set [1] is G2019S LRRK2 (Homo sapiens, UniProt Q5S007, G2019S). Briefly: In vitro kinase assay: LRRK2-mediated phosphorylation of 4E-BP1. The data set is classed as biochemical. On the procedure:
The GST-4E-BP1 expressing vector was generated using the Invitrogen Gateway LR Clonase System. Briefly, an entry clone containing the 4E-BP1 sequence was reacted with the destination vector, pDEST-15 in the presence of the LR clonase mixture. After the clonase reaction, the mixture was transformed into One Shot BL21 chemically competent E. coli. The transformed cells were grown on ampicillin containing LB agar plate for one day at 37° C. Colonies containing GST-4E-BP1 were isolated. For protein induction, 100 μM IPTG was added to 100 mL culture and incubated for 3 h at 30° C. After IPTG incubation, cells were collected by centrifugation at 3,000×g for 15 min. The pellet was lysed with sonication in the presence of lysis butter containing 0.5% TX-100, 50 mM Tris-HCl (pH 8.0), 100 mM NaCl, 0.5 mM EGTA, 5 mM MgCl2, 2 mM DTT, and complete protease inhibitors. The lysate was centrifugated at 15,000×g for 15 min and the supernatant was incubated with GSH-sepharose beads for 2 h at 4° C. After incubation, the beads were washed with PBS containing an additional 150 mM NaCl and 0.1% TX-100 three times. The protein was eluted with elution buffer containing Hepes (pH 8.0), 150 mM NaCl, 30% glycerol, and 30 mM glutathione. The eluted proteins were stored at −80° C.
(§1) The in vitro kinase assay was performed as previously described. West, A. B. et al. Parkinson's disease-associated mutations in leucine-rich repeat kinase 2 augment kinase activity. Proc Natl Acad Sci USA 102, 16842-16847 (2005). Recombinant LRRK2 and MBP or CST-4E-BP1 were combined before the kinase reaction. LRRK2 autophosphorylation is LRRK2 itself phosphorylation and MBP or GST-4E-BP1 phosphorylation is induced by LRRK2. After the kinase reaction, combined LRRK2 and MBP or GST-4E-BP1 were loaded on SDSPAGE and phosphorylated LRRK2 and MBP or GST-4E-BP1 could be detected separately an a single gel. Recombinant proteins and inhibitors were incubated at 30° C. in kinase assay buffer containing 20 mM Hepes (pH 7.4), 5 mM EGTA, and 20 mM β-glycerol phosphate. 0.5 μg MBP (Upstate) or 0.5 μg GST-4B-BP1, 50 μM ATP (Sigma), 20 mM MgCl2, and 1 μCi [γ-32P] ATP (PerkinElmer) was added after 5 min. The reaction was performed at 30° C. to reduce non-specific 32P incorporation for 15 min and terminated by the addition of 5×Laemmili sample buffer. The reactions were then heated at 70° C. for 10 min and resolved by 12% SDS-PAGE. Gels were stained by coomassie brilliant blue after fixation with 10% acetic acid and 40% methanol and then exposed to a Phosphoimager. Data were analyzed by ImageQuant 6.0 software.

Data set [2] deals with T1, LRRK2 WT (Homo sapiens, UniProt Q5S007). Nature of the data set: In vitro kinase assay: LRRK2 autophosphorylation. It counts as biochemical. The following applies: dose-response.
Data set [3] deals with T2, LRRK2 G2019S (Homo sapiens, UniProt Q5S007, G2019S). Nature of the data set: In vitro kinase assay: G2019S LRRK2-mediated MBP phosphorylation. The data set is classed as biochemical. As to conditions: dose-response. On the procedure:
(§2) Transfection was performed by using Fugene HD reagent (Roche Applied Science) according to the manufacturer's instruction. For purification of recombinant LRRK1 and LRRK2 proteins, ACTA Purifier (GE Healthcare) FPLC system was used.
(§3) Resulting lysates were rotated at 4° C. for 30 min followed by centrifugation at 20,000×g for 15 min. The supernatants were injected into a GSTrap FF column pre-equilibrated with PBS at 0.5. mL/min flow after filtration using a 0.2 μm syringe filter (Corning). The bound proteins were eluted with buffer containing 10 mM GSH (Sigma), 150 mM NaCl, and 50 mM Tris-HCl (pH 8.0).
as §1, with “West, A. B. et al. Parkinson's disease-associated mutations in leucine-rich repeat kinase 2 augment kinase activity. Proc Natl Acad Sci USA 102, 16842-16847 (2005).” left out, “The reactions were then heated at 70° C. for 10 min and resolved by 12% SDS-PAGE.” left out
(§4) To calculate the IC50 value, a dose-response curve was constructed and non-linear regression analysis using the equation for a sigmoid plot.

The target of data set [4] is T3, LRRK1 WT (Homo sapiens, UniProt Q38SD2). Nature of the data set: In vitro kinase assay: LRRK1 autophosphorylation. It counts as biochemical.
For data set [5] the following is noted: from literature; cited from earlier work.
Data set [6] concerns the target T2, LRRK2 G2019S. Briefly: In vitro kinase assay: G2019S LRRK2 autophosphorylation. The data set is classed as biochemical. As to conditions: dose-response. As to the method:
as §2, §3
as §1, with “West, A. B. et al. Parkinson's disease-associated mutations in leucine-rich repeat kinase 2 augment kinase activity. Proc Natl Acad Sci USA 102, 16842-16847 (2005).” left out, “The reactions were then heated at 70° C. for 10 min and resolved by 12% SDS-PAGE.” left out
as §4

Data set [7] deals with rat primary cortical neuronal cultures transfected with G2019S LRRK2. Briefly: LRRK2-induced neuronal toxicity in primary cortical neuronal cultures (neurite shortening, TUNEL). The data set is classed as cell-based. The following applies: 0.5 μM. As to the method:
Representative photomicrographs of each experimental group. LRRK2 and eGFP constructs were combined in a molar ratio of 10:1, respectively, and transfected by using of Lipofectamine 2000 (Invitrogen) at DIV (day in vitro) 14 into rat primary cortical neuronal cultures. Compounds (0.5 μM) were administrated at the time of transfection and continued until toxicity assessments. On DIV 16, images were collected on a Zeiss Automatic stage with Axiovision 6.0. (a) Low magnified photomicrographs; (b and c) High magnified photomicrographs. Scale bar=50 μm (a) and 10 μm (b and c);
Primary cortical neuronal cultures were prepared from gestational day 15 fetal rats as previously described. Gonzalez-Zulueta, M., et al. Manganese superoxide dismutase protects nNOS neurons from NMDA and nitric oxide-mediated neurotoxicity. J Neurosci 18, 2040-2055 (1998). All procedures used in this study were approved by the Johns Hopkins Medical Institute Animal Care Committee. Cell viability assays and DNA fragmentation (TUNEL assay) were performed as previously described. Smith, W. W., et al. Kinase activity of mutant LRRK2 mediates neuronal toxicity. Nat Neurosci 9, 1231-1233 (2006); West, A. B., et al. Parkinson's disease-associated mutations in LRRK2 link enhanced GTP-binding and kinase activities to neuronal toxicity. Hum Mol Genet 16, 223-232 (2007). The cortex was dissected, incubated for 15 min in 0.027% trypsin, and then transferred to modified Eagle's medium (MEM)/10% horse serum/10% fetal bovine serum/2 mM glutamine followed by trituration. Dissociated cells were plated at a density of 3-4×10^5 cells per well in polyornithine-coated plates. After 4 days the cells were treated with 10 μg of 5-fluoro-2′-deoxyuridine to prevent proliferation of nonneuronal cells. Cells were maintained in MEM/5% horse serum/2 mM glutamine in 8% CO2 incubator. The medium was changed twice weekly. For assessment of LRRK2-mediated neuronal injury, LRRK2 and eGFP constructs were combined in a molar ratio of 10:1, respectively, and transfected into neurons with Lipofectamine 2000 (Invitrogen) at DIV (day in vitro) 14. On DIV 16, images were collected on a Zeiss Automatic stage with Axiovision 6.0. Viable neurons were defined as having at least one smooth extension (neurite) with twice the length of the cell body. The percentage of eGFP-positive injured neurons in each experimental group relative to those neurons transfected with eGFP was calculated.

The target of data set [8] is T3, LRRK1 WT. Briefly: In vitro kinase assay: LRRK1-mediated MBP phosphorylation. It counts as biochemical.
The target in data set [9] is T1, LRRK2 WT. Nature of the data set: In vitro kinase assay: LRRK2-mediated MBP phosphorylation. It counts as biochemical. As to conditions: dose-response.

T2 sequence (Q5S007 whole entry G2019S): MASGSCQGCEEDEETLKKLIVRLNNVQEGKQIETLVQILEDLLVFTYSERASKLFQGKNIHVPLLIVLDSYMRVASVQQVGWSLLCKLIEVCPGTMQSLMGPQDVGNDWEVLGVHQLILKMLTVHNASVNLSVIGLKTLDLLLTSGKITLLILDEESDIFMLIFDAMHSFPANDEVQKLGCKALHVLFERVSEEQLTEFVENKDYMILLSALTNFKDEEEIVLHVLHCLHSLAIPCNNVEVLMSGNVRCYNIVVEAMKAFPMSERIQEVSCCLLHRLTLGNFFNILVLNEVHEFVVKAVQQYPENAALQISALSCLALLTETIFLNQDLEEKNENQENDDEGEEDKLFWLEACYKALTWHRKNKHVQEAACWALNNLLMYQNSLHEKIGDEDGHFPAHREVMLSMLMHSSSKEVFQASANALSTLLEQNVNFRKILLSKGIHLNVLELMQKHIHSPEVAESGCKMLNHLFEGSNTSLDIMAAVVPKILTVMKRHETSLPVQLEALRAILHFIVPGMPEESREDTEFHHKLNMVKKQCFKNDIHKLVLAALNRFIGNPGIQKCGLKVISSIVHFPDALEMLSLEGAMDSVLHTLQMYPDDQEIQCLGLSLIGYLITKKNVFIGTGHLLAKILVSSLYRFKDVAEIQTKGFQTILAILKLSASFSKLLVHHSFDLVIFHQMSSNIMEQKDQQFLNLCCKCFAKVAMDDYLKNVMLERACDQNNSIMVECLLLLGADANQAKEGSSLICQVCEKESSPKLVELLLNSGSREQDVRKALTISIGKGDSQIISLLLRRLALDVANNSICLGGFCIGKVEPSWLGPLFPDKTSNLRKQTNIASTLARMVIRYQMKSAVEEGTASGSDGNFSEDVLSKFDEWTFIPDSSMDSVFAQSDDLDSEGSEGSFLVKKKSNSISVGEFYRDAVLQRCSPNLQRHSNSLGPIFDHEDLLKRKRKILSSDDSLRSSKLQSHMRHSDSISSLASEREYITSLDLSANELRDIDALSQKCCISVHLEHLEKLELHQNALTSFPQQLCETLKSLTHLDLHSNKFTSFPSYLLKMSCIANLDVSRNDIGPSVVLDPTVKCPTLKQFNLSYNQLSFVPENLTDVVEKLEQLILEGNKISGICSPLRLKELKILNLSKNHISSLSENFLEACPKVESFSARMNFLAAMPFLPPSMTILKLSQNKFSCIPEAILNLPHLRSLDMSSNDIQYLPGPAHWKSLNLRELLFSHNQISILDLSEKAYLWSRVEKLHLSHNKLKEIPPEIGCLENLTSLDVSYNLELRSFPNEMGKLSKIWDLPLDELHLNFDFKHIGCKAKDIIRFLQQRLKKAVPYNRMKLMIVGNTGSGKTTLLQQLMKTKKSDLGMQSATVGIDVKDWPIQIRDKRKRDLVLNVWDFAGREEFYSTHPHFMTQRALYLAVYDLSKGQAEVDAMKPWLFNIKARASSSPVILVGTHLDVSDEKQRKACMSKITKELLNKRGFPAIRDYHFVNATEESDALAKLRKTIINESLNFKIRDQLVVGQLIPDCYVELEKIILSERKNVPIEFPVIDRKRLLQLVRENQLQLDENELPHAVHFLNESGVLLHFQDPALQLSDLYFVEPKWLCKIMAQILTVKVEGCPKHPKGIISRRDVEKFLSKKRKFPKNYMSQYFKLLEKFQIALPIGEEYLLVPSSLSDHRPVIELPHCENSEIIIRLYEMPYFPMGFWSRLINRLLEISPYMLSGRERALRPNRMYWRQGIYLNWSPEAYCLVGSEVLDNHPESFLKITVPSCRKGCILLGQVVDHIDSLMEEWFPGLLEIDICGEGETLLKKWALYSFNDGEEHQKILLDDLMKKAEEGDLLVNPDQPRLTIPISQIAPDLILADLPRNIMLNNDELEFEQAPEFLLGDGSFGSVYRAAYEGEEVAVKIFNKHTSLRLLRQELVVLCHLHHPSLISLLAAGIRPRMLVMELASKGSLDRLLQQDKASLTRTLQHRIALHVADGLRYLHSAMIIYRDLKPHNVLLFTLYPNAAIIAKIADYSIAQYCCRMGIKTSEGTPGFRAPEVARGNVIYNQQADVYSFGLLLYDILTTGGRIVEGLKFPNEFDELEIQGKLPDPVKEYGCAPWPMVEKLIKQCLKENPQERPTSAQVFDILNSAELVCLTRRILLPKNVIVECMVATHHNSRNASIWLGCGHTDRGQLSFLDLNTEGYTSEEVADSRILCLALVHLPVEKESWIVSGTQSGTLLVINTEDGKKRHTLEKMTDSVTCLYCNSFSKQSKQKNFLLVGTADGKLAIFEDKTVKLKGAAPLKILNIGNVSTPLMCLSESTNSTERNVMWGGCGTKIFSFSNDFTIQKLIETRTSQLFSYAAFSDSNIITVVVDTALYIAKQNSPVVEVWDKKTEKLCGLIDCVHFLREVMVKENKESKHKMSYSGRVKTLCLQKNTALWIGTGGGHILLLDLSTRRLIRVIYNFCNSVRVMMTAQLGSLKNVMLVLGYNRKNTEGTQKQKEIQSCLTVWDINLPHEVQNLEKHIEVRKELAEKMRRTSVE
T1 sequence (Q5S007 whole entry): as the sequence (Q5S007 whole entry G2019S) above, with S2019G counted along it
T3 sequence (Q38SD2 whole entry): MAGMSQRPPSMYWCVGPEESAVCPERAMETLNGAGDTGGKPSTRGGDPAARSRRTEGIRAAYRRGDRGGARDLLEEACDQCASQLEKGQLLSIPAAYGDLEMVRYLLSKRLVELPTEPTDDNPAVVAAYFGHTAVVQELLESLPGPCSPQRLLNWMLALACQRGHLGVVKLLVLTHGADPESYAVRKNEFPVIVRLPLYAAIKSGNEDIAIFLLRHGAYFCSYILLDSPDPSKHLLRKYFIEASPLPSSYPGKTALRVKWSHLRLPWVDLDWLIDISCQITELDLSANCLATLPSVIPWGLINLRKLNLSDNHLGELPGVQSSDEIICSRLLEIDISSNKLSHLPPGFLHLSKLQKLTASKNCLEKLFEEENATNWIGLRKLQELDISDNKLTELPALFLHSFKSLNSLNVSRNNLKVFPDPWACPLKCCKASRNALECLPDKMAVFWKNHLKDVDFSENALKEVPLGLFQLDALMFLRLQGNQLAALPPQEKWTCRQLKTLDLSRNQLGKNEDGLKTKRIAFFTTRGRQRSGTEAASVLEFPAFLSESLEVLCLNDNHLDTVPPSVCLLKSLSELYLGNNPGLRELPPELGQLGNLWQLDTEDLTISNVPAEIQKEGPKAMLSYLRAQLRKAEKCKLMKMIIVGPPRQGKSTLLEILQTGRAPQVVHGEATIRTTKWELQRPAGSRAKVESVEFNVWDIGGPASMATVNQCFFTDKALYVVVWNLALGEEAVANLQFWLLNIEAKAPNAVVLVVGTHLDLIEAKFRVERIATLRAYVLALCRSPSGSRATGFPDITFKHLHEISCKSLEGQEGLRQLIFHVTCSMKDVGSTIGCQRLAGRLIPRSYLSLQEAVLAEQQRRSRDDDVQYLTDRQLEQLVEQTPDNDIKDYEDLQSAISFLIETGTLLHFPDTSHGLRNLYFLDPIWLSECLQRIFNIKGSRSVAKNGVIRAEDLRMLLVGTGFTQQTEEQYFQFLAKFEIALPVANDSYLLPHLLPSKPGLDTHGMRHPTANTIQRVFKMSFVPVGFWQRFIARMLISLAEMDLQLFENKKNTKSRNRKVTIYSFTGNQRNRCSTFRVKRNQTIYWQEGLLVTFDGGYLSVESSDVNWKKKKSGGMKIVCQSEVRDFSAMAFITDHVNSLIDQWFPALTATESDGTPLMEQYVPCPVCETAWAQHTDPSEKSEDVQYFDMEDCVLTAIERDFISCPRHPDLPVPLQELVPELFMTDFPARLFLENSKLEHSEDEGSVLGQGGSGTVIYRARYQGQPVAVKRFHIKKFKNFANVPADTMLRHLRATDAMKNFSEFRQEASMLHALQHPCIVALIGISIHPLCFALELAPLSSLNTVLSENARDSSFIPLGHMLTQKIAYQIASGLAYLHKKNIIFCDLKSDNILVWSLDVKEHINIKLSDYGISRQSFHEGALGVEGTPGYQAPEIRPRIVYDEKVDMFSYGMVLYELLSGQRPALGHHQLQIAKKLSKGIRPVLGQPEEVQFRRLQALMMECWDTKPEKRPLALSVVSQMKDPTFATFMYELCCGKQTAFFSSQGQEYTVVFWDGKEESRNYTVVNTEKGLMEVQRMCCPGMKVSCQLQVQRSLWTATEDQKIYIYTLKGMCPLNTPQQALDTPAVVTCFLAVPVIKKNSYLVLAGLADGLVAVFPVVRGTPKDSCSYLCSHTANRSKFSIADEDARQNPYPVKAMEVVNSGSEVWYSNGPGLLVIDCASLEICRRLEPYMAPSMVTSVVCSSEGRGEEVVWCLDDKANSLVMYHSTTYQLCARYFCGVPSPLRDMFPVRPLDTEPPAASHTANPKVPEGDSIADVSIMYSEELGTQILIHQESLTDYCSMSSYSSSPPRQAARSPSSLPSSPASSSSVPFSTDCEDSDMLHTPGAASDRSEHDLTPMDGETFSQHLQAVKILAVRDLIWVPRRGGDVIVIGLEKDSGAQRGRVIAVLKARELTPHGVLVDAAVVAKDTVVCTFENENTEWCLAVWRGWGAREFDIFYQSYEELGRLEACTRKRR
Chain of G2019S LRRK2 (Q5S007 whole entry G2019S): as the sequence (Q5S007 whole entry G2019S) above

As to `O=C1Nc2ccccc2/C1=C1/Nc2ccccc2C1=O` [Inhibitor 69, Indirubin], the “LRRK2-mediated phosphorylation of 4E-BP1” value in [1] is listed as “did not inhibit”. The “effect on WT LRRK2 autophosphorylation” value in [2] was “no effect”. Moreover, in data set [3], the “effect on G2019S LRRK2 MBP phosphorylation” value is on record as “no effect”. For the same compound, the “effect on LRRK1 autophosphorylation” value in data set [4] was “no effect”. Also, the “crossing of the blood-brain barrier” value in data set [5] is on record as “known to cross the blood-brain barrier”. Moreover, the “effect on G2019S LRRK2 autophosphorylation” value in data set [6] is listed as “no effect”. The “G2019S LRRK2 toxicity” value in [7] was “failed to inhibit”. In [8], the “effect on LRRK1 MBP phosphorylation” value is listed as “no effect”. The “effect on WT LRRK2 MBP phosphorylation” value in [9] is “no effect”.
